Results: publication PMC3130785, “Small Compound 6-O-Angeloylplenolin Induces Mitotic Arrest and Exhibits Therapeutic Potentials in Multiple Myeloma” (PLoS ONE, 2011)

Key:
Type in all cases: cell-based, human
cyclin D1 = test: Western blotting; conditions: U266 and MM1.S cells; 12 to 48 h
Procedure: (§1) Cell pellets were lysed in RIPA buffer containing 50 mM Tris pH 8.0, 150 mM NaCl, 0.1% SDS, 0.5% deoxycholate, 1% NP-40, 1 mM DTT, 1 mM NaF, 1 mM sodium vanadate, and protease inhibitors cocktail (Sigma). For immunoprecipitations, cells were lysed on ice for 15 minutes in RIPA buffer. Lysates were centrifuged. The supernatant was incubated with indicated antibodies overnight, after which protein A/G Plus beads (Santa Cruz Biotechnology) were added and incubated for 3 h. The beads were washed 4 times in RIPA buffer. Then the beads were resuspended in 1× sample buffer and boiled for 3 min. Protein extracts were quantitated and loaded on 8% to 12% sodium dodecyl sulfate polyacrylamide gel, electrophoresed, and transferred to a nitrocellulose membrane (Whatman). The membrane was incubated with primary antibody, washed, and incubated with horseradish peroxidase (HRP)–conjugated secondary antibody (Pierce). Detection was performed by using a chemiluminescent western detection kit (Cell Signaling). […]
(§2) Figure 3 6-OAP accumulates cyclin B1 which is required for mitotic arrest. […] After co-incubation with 6-OAP for 18 h, the cells were then harvested and detected by Leica DMI 400B microscope (D), or analyzed by flow cytometry for the cell cycle distribution (E). To evaluate cell growth, the cells were treated with 6-OAP for indicated time points and analyzed by trypan blue exclusion assay (F). […] (H) U266 cells were treated without or with 7.5 µM 6-OAP for 24 h, and stained with anti-α-tubulin and anti-BubR1 antibodies to visualize microtubules (green), BubR1 (red), and DAPI to counter stained DNA (blue), and analyzed by confocal microscopy. […]

pCdc2 (Y15) = test: Western blotting; conditions: U266, MM.1S and CD138+ primary cells
Procedure: as §1, §2

cyclin B1 = test: Western blotting; conditions: U266, MM.1S and CD138+ primary cells
Procedure: as §1, §2

MM.1S cells = test: MTT assay with IL-6, IGF-I or BMSCs; conditions: 48 h
Procedure: U266, RPMI 8226 cells (1×10^4), primary CD138+ cells, PBMCs (5×10^4), and BMSCs (1×10^4) were cultured in 96-well dishes and incubated without or with 6-OAP at indicated concentration for 48 h. MM.1S and MM.1R cells (2×10^4) were seeded into 96-well dishes and pre-cultured for 24 h, then treated with 6-OAP for 48 h. Cell proliferation was determined by MTT assay. Cell viability was estimated by trypan blue dye exclusion.
Figure 5 6-OAP overcomes the protective effects of IL-6, IGF-I and BMSCs on MM cells. (A and B) MM.1S cells were cultured for 48 h with indicated concentrations of 6-OAP at the presence or absence of IL-6 (A) or IGF-I (B). Cell proliferation was assessed by MTT assay. (C) MM.1S and/or BMSCs cells were cultured for 48 h with indicated concentrations of 6-OAP. Cell proliferation was assessed by MTT assay. *p<.01,** p<.05. (D) MM.1S cells were serum starved for 2 h, then co-cultured without or with 6-OAP at 5 µM for 12 h, followed by stimulation with IL-6 at 10 ng/ml for indicated time points (upper panel), or IL-6 at 10 ng/ml for 1 h, followed by treatment with 6-OAP at indicated concentration for 12 h (lower panel). Whole-cell extracts were prepared and examined by Western blotting using antibodies against pJak2, pStat3, Stat3 or β-actin. (E) MM.1S cells were serum starved for 2 h, then co-cultured without or with 6-OAP (5 µM) for 12 h, followed by stimulation with IGF-I at 50 ng/ml for indicated time points (upper panel), or stimulated with IGF-I at 50 ng/ml for 1 h, followed by treatment with 6-OAP at indicated concentration for 12 h (lower panel). Whole-cell extracts were prepared and examined by western blotting using antibodies against pPDK1, pAkt, Akt or β-actin. (F) MM.1S cells were serum starved for 2 h, then co-cultured without or with 6-OAP (5 µM) for 12 h, followed by stimulation with TNF-α at 5 ng/ml for indicated time points. Whole-cell extracts were prepared and examined by Western blotting using indicated antibodies.

pIκBα and pP65 = test: Western blotting, TNF-α stimulation; conditions: MM.1S; 6-OAP 5 µM 12 h; TNF-α 5 ng/ml
Procedure: as §1
Figure 5 6-OAP overcomes the protective effects of IL-6, IGF-I and BMSCs on MM cells. […] Cell proliferation was assessed by MTT assay. […] Cell proliferation was assessed by MTT assay. *p<.01,** p<.05. […]

## CC=C(C)C(=O)OC1C2C(CC(C)C3C=CC(=O)C31C)OC(=O)C2C (stereo not shown) [6-OAP, 6-O-angeloylplenolin]
Cyclin D1
  cyclin D1 level: down-regulated
pCdc2 (Y15)
  pCdc2 (Y15) level: decrease of tyrosine-15-phosphorylated Cdc2
Cyclin B1
  cyclin B1 level: increase of cyclin B1
MM.1S cells; IGF-I 10 to 50 ng/ml, 6-OAP 5 to 7.5 µM
  IGF-I-caused cell proliferation: abolished IGF-I-caused cell proliferation
MM.1S cells; IL-6 2 to 10 ng/ml, 6-OAP 5 to 7.5 µM
  IL-6-promoted proliferation: drastically reversed this effect
MM.1S cells; co-incubation with BMSCs, 6-OAP 5 or 7.5 µM
  BMSCs-facilitated MM.1S cell expansion: significantly inhibited this effect
pIκBα and pP65
  TNF-α-induced pIκBα and pP65: inhibited phosphorylation
